Results taken from patent US12053456B2, “Pharmaceutical compositions for combination therapy” (GENFIT, priority 2017, dated 2024).

Tested on: α-SMA in TGFβ1-induced hHSC
Assay: α-SMA ELISA in TGFβ1-activated human primary hepatic stellate cells (single agents and combination matrix, EOB/EOHSA)
Assay type: cell-based
Conditions: single agent, 1 hour preincubation, TGFβ1 1 ng/ml, 48 hours
Method: Serum-deprived HSC were preincubated for 1 hour with Elafibranor (A) or Nitazoxanide (B), or Bezafibrate (C) before the activation with the profibrogenic cytokine TGFβ1 (1 ng/ml). After 48 hours of incubation, the expression of α-SMA was measured by ELISA. The obtained values were transformed into percentage inhibition over TGFβ1 control. Data are presented as mean (triplicates)±standard deviation (SD)]. The curve fitting and the calculation of half maximal inhibitory concentration (IC50) were performed with XLFit software 5.3.1.3.
Combinations were tested in a dose-response matrix format and analyzed according to the excess over Bliss (EOB) additivism model. Dilution series of Elafibranor (row) and Nitazoxanide (column) were prepared, including their respective DMSO controls. The resulting mixes were added to serum-deprived HSC, 1 hour prior to the activation with the profibrogenic cytokine TGFβ1 (1 ng/ml). […] (B) EOB scores were calculated as described in Materials and Methods. […] The total EOB score including all combinations was also calculated. […]
Combinations were tested in a dose-response matrix format and analyzed according to the excess over Bliss (EOB) additivism model. […] Percentage of α-SMA inhibition over the TGFβ1 control for all combination pairs was calculated. EOB scores were calculated as described in Materials and Methods. […]

`O=C(Nc1ncc([N+](=O)[O-])s1)c1ccccc1O` [TZ, tizoxanide] was tested, and the “antifibrotic activity (α-SMA) in TGFβ-induced hHSC” value was “profile similar to the parent drug”.
